The values below come from patent publication US20230089867A1, “CYCLIC PENTAMER COMPOUNDS AS PROPROTEIN CONVERTASE SUBTILISIN/KEXIN TYPE 9 (PCSK9) INHIBITORS FOR THE TREATMENT OF METABOLIC DISORDER” (Novartis AG, priority 2018, published 2023).

pIC50: −log10 of the molar value.

This assay has as its target human PCSK9 (Homo sapiens, UniProt Q8NBP7). Kind of assay: PCSK9 ligand binding TR-FRET assay (interference with binding of human PCSK9 to human LDLR). The settings on record: for Max % inhibition: PCSK9 FRET assay, efficacy (Amax), 100% = 1 uM unlabeled human PCSK9, 0% = DMSO; for pIC50: TR-FRET, human PCSK9 Alexa Fluor 647 / human LDLR extracellular domain-Europium Kryptate, read-out: PCSK9 FRET Assay IC50. The gist of the method:
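Threefold compound dilutions were pre-incubated 30 min with PCSK9, after which 4 nM Europium Kryptate-tagged human LDLR ectodomain was added for a further 2 h.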

human PCSK9, sequence (Q8NBP7 153-692): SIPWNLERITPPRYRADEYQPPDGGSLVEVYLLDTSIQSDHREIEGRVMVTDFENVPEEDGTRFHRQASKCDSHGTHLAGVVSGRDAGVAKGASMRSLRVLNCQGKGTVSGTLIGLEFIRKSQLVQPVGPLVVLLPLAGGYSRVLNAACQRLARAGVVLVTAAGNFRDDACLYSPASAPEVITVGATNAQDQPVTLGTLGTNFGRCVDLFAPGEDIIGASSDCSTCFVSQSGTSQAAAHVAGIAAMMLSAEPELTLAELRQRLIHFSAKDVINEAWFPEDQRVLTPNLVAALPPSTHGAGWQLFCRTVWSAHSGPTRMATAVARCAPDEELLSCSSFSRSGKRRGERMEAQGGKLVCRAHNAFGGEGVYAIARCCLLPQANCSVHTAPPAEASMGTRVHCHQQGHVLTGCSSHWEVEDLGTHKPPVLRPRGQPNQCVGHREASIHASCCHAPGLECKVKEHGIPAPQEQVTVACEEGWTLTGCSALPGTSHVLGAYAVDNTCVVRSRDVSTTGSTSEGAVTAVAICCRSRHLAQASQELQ
human PCSK9, sequence (Q8NBP7 31-152 partner limits assumed): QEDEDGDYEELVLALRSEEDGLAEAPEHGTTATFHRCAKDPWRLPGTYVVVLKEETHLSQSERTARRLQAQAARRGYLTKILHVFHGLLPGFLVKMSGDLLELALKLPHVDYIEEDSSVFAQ

Regarding `COC[C@@H]1NC(=O)[C@H](C)N(Cc2ccc(Cl)cc2Oc2ccc(-c3cnc(CN4CCCC4)n3C)cc2)C(=O)C[C@@H](Cc2ccccc2)C(=O)N(C)[C@@H](CCF)CNC(=O)C[C@H](Cc2ccc(Cl)cc2)N(C)C1=O` [Compound 83, (2S,5S,8S,13S,16R)-16-benzyl-1-(4-chloro-2-(4-(1-methyl-2-(pyrrolidin-1-ylmethyl)-1H-imidazol-5-yl)phenoxy)benzyl)-8-(4-chlorobenzyl)-13-(2-fluoroethyl)-5-(methoxymethyl)-2,7,14-trimethyl-1,4,7,11,14-pentaazacyclooctadecane-3,6,10,15,18-pentaone], the Max % inhibition is on record as 99.18% and the negative logarithm of the IC50 (pIC50) was 8.77.
On the same counts, the results for `COC[C@@H]1NC(=O)[C@H](CC(F)F)N(Cc2ccc(Cl)cc2Oc2ccc(-c3cnc(CN4CCCC4)n3C)cc2)C(=O)C[C@@H](Cc2ccccc2)C(=O)N(C)[C@@H](C)CNC(=O)C[C@H](Cc2ccc(Cl)cc2)N(C)C1=O` [Compound 97, (2S,5S,8S,13S,16R)-16-benzyl-1-(4-chloro-2-(4-(1-methyl-2-(pyrrolidin-1-ylmethyl)-1H-imidazol-5-yl)phenoxy)benzyl)-8-(4-chlorobenzyl)-2-(2,2-difluoroethyl)-5-(methoxymethyl)-7,13,14-trimethyl-1,4,7,11,14-pentaazacyclooctadecane-3,6,10,15,18-pentaone] are 90.83% and 8.66.
`COC[C@@H]1NC(=O)[C@@H](C)N(Cc2ccc(C(F)F)cc2Oc2ccc(-c3cnc(CN(C)C)n3C)cc2)C(=O)C[C@@H](Cc2ccccc2)C(=O)N(C)[C@@H](C)CNC(=O)C[C@H](Cc2ccc(Cl)cc2)N(C)C1=O` [Compound 74, (2R,5S,8S,13S,16R)-16-benzyl-8-(4-chlorobenzyl)-1-(4-(difluoromethyl)-2-(4-(2-((dimethylamino)methyl)-1-methyl-1H-imidazol-5-yl)phenoxy)benzyl)-5-(methoxymethyl)-2,7,13,14-tetramethyl-1,4,7,11,14-pentaazacyclooctadecane-3,6,10,15,18-pentaone]: the Max % inhibition is 104.33% and the negative logarithm of the IC50 (pIC50) is 7.33.
Turning to `COC[C@@H]1NC(=O)[C@H](CN2CCC2)N(Cc2ccc(Cl)cc2Oc2ccc(-c3cnc(CN(C)C)n3C)cc2)C(=O)C[C@@H](Cc2ccccc2)C(=O)N(C)[C@@H](C)CNC(=O)C[C@H](Cc2ccc(Cl)cc2)N(C)C1=O` [Compound 17, (2S,5S,8S,13S,16R)-2-(azetidin-1-ylmethyl)-16-benzyl-1-(4-chloro-2-(4-(2-((dimethylamino)methyl)-1-methyl-1H-imidazol-5-yl)phenoxy)benzyl)-8-(4-chlorobenzyl)-5-(methoxymethyl)-7,13,14-trimethyl-1,4,7,11,14-pentaazacyclooctadecane-3,6,10,15,18-pentaone], the Max % inhibition is given as 81.08% and the pIC50 was 7.21.
The matching figures for `CCOc1ncc(-c2ccc(Oc3cc(Cl)ccc3CN3C(=O)C[C@@H](Cc4ccccc4)C(=O)N(C)[C@@H](C)CNC(=O)C[C@H](Cc4ccc(Cl)cc4)N(C)C(=O)[C@H](COC)NC(=O)[C@@H]3C)cc2)n1C` [Compound 68, (2S,5S,8S,13S,16R)-16-benzyl-1-(4-chloro-2-(4-(2-ethoxy-1-methyl-1H-imidazol-5-yl)phenoxy)benzyl)-8-(4-chlorobenzyl)-5-(methoxymethyl)-2,7,13,14-tetramethyl-1,4,7,11,14-pentaazacyclooctadecane-3,6,10,15,18-pentaone]: 77.84% and 7.52.
On the same counts, the results for `COC[C@@H]1NC(=O)[C@H](CCS(C)(=O)=O)N(Cc2ccc(Cl)cc2Oc2ccc(-c3cnc(CN(C)C)n3C)cc2)C(=O)C[C@@H](Cc2ccccc2)C(=O)N(C)[C@@H](C)CNC(=O)C[C@H](Cc2ccc(Cl)cc2)N(C)C1=O` [Compound 211, (2S,5S,8S,13S,16R)-16-benzyl-1-(4-chloro-2-(4-(2-((dimethylamino)methyl)-1-methyl-1H-imidazol-5-yl)phenoxy)benzyl)-8-(4-chlorobenzyl)-5-(methoxymethyl)-7,13,14-trimethyl-2-(2-(methylsulfonyl)ethyl)-1,4,7,11,14-pentaazacyclooctadecane-3,6,10,15,18-pentaone] are 102.01% and 8.41.
`CC=CC[C@@H]1CC(=O)N(Cc2ccc(Cl)cc2Oc2ccc(-c3cnc(CN(C)C)n3C)cc2)[C@@H](C)C(=O)N[C@@H](COC)C(=O)N(C)[C@@H](Cc2ccc(Cl)cc2)CC(=O)N[C@H]2CCCC[C@@H]2N(C)C1=O` [Compound 286, (4S,7S,10S,14R,16aS,20aS)-14-(but-2-en-1-yl)-11-(4-chloro-2-(4-(2-((dimethylamino)methyl)-1-methyl-1H-imidazol-5-yl)phenoxy)benzyl)-4-(4-chlorobenzyl)-7-(methoxymethyl)-5,10,16-trimethylhexadecahydrobenzo[l][1,4,7,11,14]pentaazacyclooctadecine-2,6,9,12,15(3H)-pentaone]: the Max % inhibition was 59.34% and the pIC50 was 9.15.
On the same counts, the results for `COC[C@@H]1NC(=O)[C@H](C)N(Cc2c(F)cc(Cl)cc2Oc2ccc(-c3cnc(CN4CCCC4)n3C)cc2)C(=O)C[C@@H](Cc2ccccc2)C(=O)N(C)[C@@H](C)CNC(=O)C[C@H](Cc2ccc(Cl)cc2)N(C)C1=O` [Compound 34, (2S,5S,8S,13S,16R)-16-benzyl-1-(4-chloro-2-fluoro-6-(4-(1-methyl-2-(pyrrolidin-1-ylmethyl)-1H-imidazol-5-yl)phenoxy)benzyl)-8-(4-chlorobenzyl)-5-(methoxymethyl)-2,7,13,14-tetramethyl-1,4,7,11,14-pentaazacyclooctadecane-3,6,10,15,18-pentaone] are 95.86% and 9.00.
Take `COC[C@@H]1NC(=O)[C@H](C)N(Cc2ccc(Cl)cc2Oc2ccc(-c3cnc(OC(C)C)n3C)cc2)C(=O)C[C@@H](Cc2ccccc2)C(=O)N(C)[C@@H](C)CNC(=O)C[C@H](Cc2ccc(Cl)cc2)N(C)C1=O` [Compound 92, (2S,5S,8S,13S,16R)-16-benzyl-1-(4-chloro-2-(4-(2-isopropoxy-1-methyl-1H-imidazol-5-yl)phenoxy)benzyl)-8-(4-chlorobenzyl)-5-(methoxymethyl)-2,7,13,14-tetramethyl-1,4,7,11,14-pentaazacyclooctadecane-3,6,10,15,18-pentaone]: the Max % inhibition amounted to 61.54% and the pIC50 was 7.19.
`COC[C@@H]1NC(=O)[C@H](C)N(Cc2c(C)cccc2Oc2ccc(-c3cnc(CN(C)C)n3C)cc2)C(=O)C[C@@H](Cc2ccccc2)C(=O)N(C)[C@@H](C)CNC(=O)C[C@H](Cc2ccc(Cl)cc2)N(C)C1=O` [Compound 88, (2S,5S,8S,13S,16R)-16-benzyl-8-(4-chlorobenzyl)-1-(2-(4-(2-((dimethylamino)methyl)-1-methyl-1H-imidazol-5-yl)phenoxy)-6-methylbenzyl)-5-(methoxymethyl)-2,7,13,14-tetramethyl-1,4,7,11,14-pentaazacyclooctadecane-3,6,10,15,18-pentaone]: the Max % inhibition worked out at 90.30% and the negative-log IC50 (pIC50) is 7.40.
